Data on 15 molecules can be found in patent US7423054B2, “Therapeutic pyrazolo[3,4-b]pyridines and indazoles” (Warner Lambert Company LLC, priority 2004, dated 2008).

Structures are written as SMILES. Where a name gives a salt, the structure may show the parent alone.

As usually defined, the Ki is the equilibrium dissociation constant of an inhibitor or competing ligand from its target.

In experiment [1] the target is T1, human norepinephrine transporter (hNET) (Homo sapiens, UniProt P23975).
T1 construct: expressed in transfected cells; host or cells: HEK-293 cells (membrane preparation)
Briefly: hNET receptor binding ([125I]-RTI-55 displacement, membranes of transfected HEK-293 cells). To be noted: HEK-293 membranes, Ki from IC50 by Cheng-Prusoff, read-out: NET Ki. The text has this: (§1) The ability of the compounds of the present invention to inhibit a norepinephrine transporter and/or a serotonin transporter can be determined using conventional radioligand receptor transport assays. The receptors can be heterologously expressed in cell lines and experiments conducted in membrane preparations from the cell lines that express a norepinephrine transporter and/or a serotonin transporter.
Cell pastes of HEK-293 cells transfected with a human norepinephrine transporter cDNA were prepared. The cell pastes were resuspended in 400 to 700 ml of Krebs-HEPES assay buffer (25 mM HEPES, 122 mM NaCl, 3 mM KCl, 1.2 mM MgSO4, 1.3 mM CaCl2, and 11 mM glucose, pH 7.4) with a Polytron homogenizer at setting 7 for 30 seconds. Aliquots of membranes (5 mg/ml protein) were stored in liquid nitrogen until used.
The binding assay was set up in Beckman deep-well polypropylene plates with a total volume of 250 μl containing: test compound (10^−5M to 10^−12M), cell membranes, and 50 pM [^125I]-RTI-55 (Perkin Elmer, NEX-272; specific activity 2200 Ci/mmol). The reaction was incubated by gentle agitation for 90 minutes at room temperature and was terminated by filtration through Whatman GF/C filter plates using a Brandel 96-well plate harvester. Scintillation fluid (100 μl) was added to each well, and bound [^125I]-RTI-55 was determined using a Wallac Trilux Beta Plate Counter. Test compounds were run in duplicate, and specific binding was defined as the difference between binding in the presence and absence of 10 μM desipramine.
Excel and GraphPad Prism software were used for data calculation and analysis. IC50 values were converted to Ki values using the Cheng-Prusoff equation. The Ki values (nM) for the hNET are reported below in Table 11.

The target in experiment [2] is T2, human serotonin transporter (hSERT) (Homo sapiens, UniProt P31645).
T2 construct: expressed in transfected cells; host or cells: HEK-293 cells (membrane preparation)
Briefly: hSERT receptor binding ([125I]-RTI-55 displacement, membranes of transfected HEK-293 cells). The conditions noted are these: HEK-293 membranes, Ki from IC50 by Cheng-Prusoff, read-out: SERT Ki. On the procedure: as §1
Cell pastes of HEK-293 cells transfected with a human serotonin transporter cDNA were prepared. The cell pastes were resuspended in 400 to 700 ml of Krebs-HEPES assay buffer (25 mM HEPES, 122 mM NaCl, 3 mM KCl, 1.2 mM MgSO4, 1.3 mM CaCl2, and 11 mM glucose, pH 7.4) with a Polytron homogenizer at Setting 7 for 30 seconds. Aliquots of membranes (˜2.5 mg/ml protein) were stored in liquid nitrogen until used.
Assays were set up in FlashPlates pre-coated with 0.1% PEI in a total volume of 250 μl containing: test compound (10^−5M to 10^−12M), cell membranes, and 50 pM [^125I]-RTI-55 (Perkin Elmer, NEX-272; specific activity 2200 Ci/mmol). The reaction was incubated and gently agitated for 90 minutes at room temperature, and terminated by removal of assay volume. Plates were covered, and bound [^125I]-RTI-55 was determined using a Wallac Trilux Beta Plate Counter. Test compounds were run in duplicate, and specific binding was defined as the difference between binding in the presence and absence of 10 μM citalopram.
Excel and GraphPad Prism software were used for data calculation and analysis. IC50 values were converted to Ki values using the Cheng-Prusoff equation. The Ki values (nM) for the hSERT are reported below in Table 11: […]

T2 sequence (P31645 whole entry): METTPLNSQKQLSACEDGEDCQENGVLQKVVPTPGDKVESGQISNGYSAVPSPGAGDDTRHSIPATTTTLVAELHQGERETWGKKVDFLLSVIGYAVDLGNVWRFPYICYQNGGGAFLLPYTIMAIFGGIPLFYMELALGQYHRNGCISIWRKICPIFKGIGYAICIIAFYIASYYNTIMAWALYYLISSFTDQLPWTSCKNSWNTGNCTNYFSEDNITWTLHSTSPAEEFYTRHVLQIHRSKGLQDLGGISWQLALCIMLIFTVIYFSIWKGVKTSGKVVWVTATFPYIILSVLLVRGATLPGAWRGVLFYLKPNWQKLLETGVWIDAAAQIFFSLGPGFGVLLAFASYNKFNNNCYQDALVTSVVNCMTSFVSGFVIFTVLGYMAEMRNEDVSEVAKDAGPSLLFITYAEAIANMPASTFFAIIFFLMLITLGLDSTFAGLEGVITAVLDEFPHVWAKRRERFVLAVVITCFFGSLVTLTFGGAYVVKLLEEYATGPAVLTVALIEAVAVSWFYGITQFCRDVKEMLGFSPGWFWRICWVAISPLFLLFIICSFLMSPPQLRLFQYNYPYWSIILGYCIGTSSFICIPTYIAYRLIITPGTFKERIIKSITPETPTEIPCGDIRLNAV
T1 sequence (P23975 whole entry): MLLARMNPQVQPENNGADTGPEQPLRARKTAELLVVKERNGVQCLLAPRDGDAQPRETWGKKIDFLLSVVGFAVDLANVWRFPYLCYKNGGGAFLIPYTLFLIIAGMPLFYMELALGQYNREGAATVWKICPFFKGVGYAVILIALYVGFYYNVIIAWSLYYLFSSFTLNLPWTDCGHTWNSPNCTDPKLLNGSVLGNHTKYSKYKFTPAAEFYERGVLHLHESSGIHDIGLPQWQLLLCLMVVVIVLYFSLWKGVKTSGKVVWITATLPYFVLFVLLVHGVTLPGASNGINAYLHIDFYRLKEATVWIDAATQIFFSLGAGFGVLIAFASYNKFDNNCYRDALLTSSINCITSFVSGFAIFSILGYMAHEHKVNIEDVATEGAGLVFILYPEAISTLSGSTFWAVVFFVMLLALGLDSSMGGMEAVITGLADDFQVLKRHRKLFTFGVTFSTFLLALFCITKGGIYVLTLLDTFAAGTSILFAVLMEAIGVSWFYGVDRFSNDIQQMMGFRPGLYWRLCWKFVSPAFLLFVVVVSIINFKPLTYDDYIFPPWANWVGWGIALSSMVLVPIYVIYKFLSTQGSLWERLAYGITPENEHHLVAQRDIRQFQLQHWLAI

Turning to `Cc1cccc2c1c(OC1CCNCC1)nn2-c1ccccc1` [Example 62, 4-Methyl-1-phenyl-3-(piperidin-4-yloxy)-1H-indazole hydrochloride], the inhibition constant Ki in experiment [1] turned out to be 495 nM; in experiment [2] it was 314 nM.

Take `Fc1ccc(F)c(-n2nc(OC3CCNCC3)c3cc(Cl)ccc32)c1` [Example 58, 5-Chloro-1-(2,5-difluoro-phenyl)-3-(piperidin-4-yloxy)-1H-indazole hydrochloride]: the results for the Ki in experiment [1] and in experiment [2] were 56 nM and 134 nM, respectively.

Turning to `Fc1ccccc1-n1nc(OC[C@@H]2CNCCO2)c2ccccc21` [Example 2, (S)-(+)-1-(2-Fluorophenyl)-3-(morpholin-2-ylmethoxy)-1H-indazole maleate], the values for the Ki in experiment [1] and in experiment [2] were 9.28 nM and 1620 nM, respectively.

Consider `Fc1cccc(F)c1-n1nc(OC2CCNCC2)c2ccccc21` [Example 36, 1-(2,6-Difluoro-phenyl)-3-(piperidin-4-yloxy)-1H-indazole hydrochloride], for which the Ki was determined as 5.16 nM in experiment [1] and 82.7 nM in experiment [2].

For the molecule `Fc1ccc(-n2nc(OCC3CCCNC3)c3ccccc32)cc1` (racemic) [Example 67, (±)-1-(4-Fluoro-phenyl)-3-(piperidin-3-ylmethoxy)-1H-indazole hydrochloride], the Ki in experiment [1] is 19.7 nM; in experiment [2], 191 nM.

For the molecule `Fc1ccccc1-n1nc(OC[C@H]2CCCNC2)c2ccccc21` [Example 6, (S)-(−)-1-(2-Fluorophenyl)-3-(piperidin-3-ylmethoxy)-1H-indazole hydrochloride], the Ki was found to be 1.65 nM in experiment [1] and 192 nM in experiment [2].

Regarding `Clc1ccc2c(c1)c(OCC1CCCNC1)nn2-c1ccccc1` (racemic) [Example 69, (±)-5-Chloro-1-phenyl-3-(piperidin-3-ylmethoxy)-1H-indazol hydrochloride], the Ki is 98 nM in experiment [1] and 339 nM in experiment [2].

Consider `Fc1ccc(F)c(-n2nc(OC[C@@H]3CNCCO3)c3c(F)cccc32)c1` [Example 95, (S)-1-(2,5-Difluoro-phenyl)-4-fluoro-3-(morpholin-2-ylmethoxy)-1H-indazole hydrochloride], for which the figures for the Ki in experiment [1] and in experiment [2] were 5.47 nM and 3470 nM, respectively.

With `COc1cccc2c(OC3CCNCC3)nn(-c3ccccc3)c12` [Example 60, 7-Methoxy-1-phenyl-3-(piperidin-4-yloxy)-1H-indazole hydrochloride], the Ki in experiment [1] is 221 nM; in experiment [2], 76.7 nM.

Take `Clc1ccc(-n2nc(OC3CCNCC3)c3ccccc32)cc1` [Example 41, 1-(4-Chloro-phenyl)-3-(piperidin-4-yloxy)-1H-indazole hydrochloride]: the Ki was determined as 299 nM in experiment [1] and 79.7 nM in experiment [2].

Turning to `Fc1cc2c(OCC3CCCNC3)nn(-c3ccccc3)c2cc1F` (stereo not drawn) [Example 86, 5,6-Difluoro-1-phenyl-3-(piperidin-3-ylmethoxy)-1H-indazole hydrochloride], the Ki in experiment [1] worked out at 114 nM; in experiment [2], 101 nM.

Consider `c1ccc(-n2nc(OC[C@H]3CCCNC3)c3ccccc32)cc1` [Example 19, (S)-(−)-1-Phenyl-3-(piperidin-3-ylmethoxy)-1H-indazole hydrochloride], for which the figures for the Ki in experiment [1] and in experiment [2] were 5.43 nM and 486 nM, respectively.

Consider `Fc1ccc(-n2nc(OC[C@H]3CCCNC3)c3cc(F)ccc32)cc1` [Example 80, (S)-5-Fluoro-1-(4-fluoro-phenyl)-3-(piperidin-3-ylmethoxy)-1H-indazole hydrochloride], for which the Ki in experiment [1] turned out to be 15 nM; in experiment [2], 23.9 nM.

Turning to `Fc1cccc(-n2nc(OC[C@H]3CCCNC3)c3cc(F)ccc32)c1` [Example 78, (S)-5-Fluoro-1-(3-fluoro-phenyl)-3-(piperidin-3-ylmethoxy)-1H-indazole hydrochloride], the results for the Ki in experiment [1] and in experiment [2] were 10.2 nM and 39.9 nM, respectively.

As for `c1ccc(-n2nc(OC[C@@H]3CNCCO3)c3cccnc32)cc1` [Example 105, (S)-(+)-3-(Morpholin-2-ylmethoxy)-1-phenyl-1H-pyrazolo[3,4-b]pyridine hydrochloride], the results for the Ki in experiment [1] and in experiment [2] were 294 nM and 4240 nM, respectively.
